The values that follow come from ChEMBL document CHEMBL1128017, “Antineoplastic agents 323. Isolation and structure of phakellistatin 6 from a Chuuk archipelago marine sponge” (1994).

Values after ≈ are worked out from the molar mass of the structure shown. Where a SMILES comes first, the peptide text is derived from it.

Common to all, as to type: functional
One test concerns NCI-H460. Kind of test: Compound was tested for inhibition of NCI-H460 human lung cancer cell line.
The subject of the next test is OVCAR-3. Description: Compound was tested for inhibition of OVCAR-3 human ovarian cancer cell line.
The next test deals with SF-295. Description: Compound was tested for inhibition of SF-295 human CNS cancer cell line.
In a further test the test system is A498. Description: Compound was tested for inhibition of A498 human renal cancer cell line.
The subject of a further test is SK-MEL-5. Description: Compound was tested for inhibition of SK-MEL-5 human melanoma cancer cell line.
A further test deals with P388. Kind of test: Compound was tested for inhibition of murine P388 lymphocytic leukemia cancer cell line. The settings on record: Mus musculus, read-out: ED50 (the source's name).
The next test has as its system KM-20L2. Description: Compound was tested for inhibition of KM20L2 human colon cancer cell line.

Turning to `CC[C@H](C)[C@@H]1NC(=O)[C@@H]2CCCN2C(=O)[C@H](CC(C)C)NC(=O)[C@H](Cc2c[nH]c3ccccc23)NC(=O)[C@@H]2CCCN2C(=O)[C@H](Cc2ccccc2)NC(=O)[C@@H]2CCCN2C1=O` (cyclo(FPWLPIP)), the GI50 with NCI-H460 came out at 0.019 µg/mL (≈ 0.0223 µM); in the test on OVCAR-3, 0.025 µg/mL (≈ 0.0294 µM); in the test with SF-295, 0.041 µg/mL (≈ 0.0482 µM); with A498, 0.078 µg/mL (≈ 0.0917 µM); with SK-MEL-5, 0.032 µg/mL (≈ 0.0376 µM); in the test with KM-20L2, 0.021 µg/mL (≈ 0.0247 µM). Moreover, in the test with P388, the EC50 was determined as 0.185 µg/mL (≈ 0.217 µM).
